Data published in patent US6166205A, “2-Aryl-4-(1-[4-heteroaryl]piperazin-1-yl)methylimidazoles: dopamine . D.sub4 receptor subtype ligands” (Neurogen Corporation, priority 1999, dated 2000).
Where a name gives a salt, the structure may show the parent alone.

Assays:
[1] = biological target: D4 receptor; experiment: dopamine D4 receptor binding assay (3H-YM 09151-2); set-up: species or system African Green monkey; conditions: 0.5 nM 3H-YM 09151-2; COS cells with recombinantly produced D4 receptors; Table 2: rat striatal homogenates
Description: (§1) Assays For D2 And D4 Receptor Binding Activity
(§2) Pellets of COS cells containing recombinantly produced D2 or D4 receptors from African Green monkey are used for the assays. A sample is homogenized in 100 volumes (w/vol) of 0.05 M Tris HCl buffer at 4° C. and pH 7.4 and then centrifuged at 30,000×g and resuspended and rehomogenized. The sample is again centrifuged at 30,000×g and the final tissue sample is frozen until use. The tissue is resuspended 1:20 (wt/vol) in 0.05 M Tris HCl buffer containing 100 mM NaCl.
(§3) Incubations are carried out at […] and contain 0.4 ml of tissue sample, 0.5 nM ^3 H-YM 09151-2(Nemonapride, cis-5-Chloro-2-methoxy-4-(methylamino)-N-(2-methyl-2-(phenylmethyl)-3-pyrrolidinyl)benzamide) and the compound of interest in a total incubation of 1.0 ml. Nonspecific binding is defined as that binding found in the presence of […] spiperone; without further additions, nonspecific binding is less than 20% of total binding. The binding characteristics of representative compounds of this invention for the D2 and D4 receptor subtypes are shown in Table 2 for rat striatal homogenates.

[2] = biological target: D2 receptor (Chlorocebus aethiops, UniProt P52702); experiment: dopamine D2 receptor binding assay (3H-YM 09151-2); set-up: species or system African Green monkey; conditions: 0.5 nM 3H-YM 09151-2; COS cells with recombinantly produced D2 receptors; Table 2: rat striatal homogenates
Chain of D2 receptor (P52702 whole entry): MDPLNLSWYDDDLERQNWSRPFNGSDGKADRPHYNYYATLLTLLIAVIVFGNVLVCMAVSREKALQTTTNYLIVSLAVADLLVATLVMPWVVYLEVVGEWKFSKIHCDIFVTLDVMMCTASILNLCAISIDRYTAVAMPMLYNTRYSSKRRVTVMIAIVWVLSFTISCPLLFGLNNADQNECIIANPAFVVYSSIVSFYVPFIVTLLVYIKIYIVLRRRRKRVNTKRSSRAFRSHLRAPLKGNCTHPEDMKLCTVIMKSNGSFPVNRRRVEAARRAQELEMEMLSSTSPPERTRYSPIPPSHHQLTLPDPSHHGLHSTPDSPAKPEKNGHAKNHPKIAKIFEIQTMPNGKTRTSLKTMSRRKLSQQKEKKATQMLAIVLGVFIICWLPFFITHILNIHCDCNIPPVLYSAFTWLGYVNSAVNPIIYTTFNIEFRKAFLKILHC
Description: as §1, §2, §3

`c1ccc(-c2ncc(CN3CCN(c4ccc5c(n4)CCCC5)CC3)[nH]2)cc1` [Compound 1a, (1-[(2-phenylimidazol-5-yl)methyl]-4-(2-5,6,7,8-tetrahydroquinolyl)piperazine hydrobromide] was tested, and the Ki [1] was 0.014 µM and the Ki [2] was over 1 µM.
Work on `c1ccc(-c2ncc(CN3CCN(c4ncc5ccccc5n4)CC3)[nH]2)cc1` [Compound 4a, 2-{4-[(2-phenylimidazol-5-yl)methyl]piperazinyl}quinazoline] yielded a Ki [2] of 2.68 µM.
`Fc1ccccc1-c1ncc(CN2CCN(c3ccc4ccccc4n3)CC2)[nH]1` [Compound 3a, 1-{[2-(2-fluorophenyl)imidazol-5-yl]methyl}-4-(2-quinolyl)piperazine oxalate] showed a Ki [1] of 0.017 µM and a Ki [2] of 0.978 µM.
Work on `c1ccc(-c2ncc(CN3CCN(c4ccc5ccccc5n4)CC3)[nH]2)cc1` [Compound 2a, 1-[(2-phenylimidazol-5-yl)methyl]-4-(2-quinolyl)piperazine hydrobromide] yielded a Ki [1] of 0.009 µM and a Ki [2] of 0.784 µM.
In the case of `c1ccc(-c2ncc(CN3CCN(c4cnc5ccccc5n4)CC3)[nH]2)cc1` [Compound 5, 2-{4-[(2-phenylimidazol-5-yl)methyl]piperazinyl}quinoxaline], the Ki [2] is reported as 2.05 µM.
